Experimental data taken from ChEMBL document CHEMBL1157956, “Aegicerin, the first oleanane triterpene with wide-ranging antimycobacterial activity, isolated from Clavija procera” (J Nat Prod, 2006).
Values after ≈ are worked out from the molar mass of the structure shown.

Experiments:
[1] = tested on: Mycobacterium tuberculosis; assay: Antimicrobial activity against isoniazid-resistant Mycobacterium tuberculosis isolate by alamar blue assay; assay type: functional
[2] = tested on: Mycobacterium tuberculosis; assay: Antimicrobial activity against multidrug-resistant Mycobacterium tuberculosis isolate by alamar blue assay; assay type: functional

In the case of `CC1(C)CC[C@]23CO[C@@]4(CC[C@@H]5[C@@]6(C)CC[C@H](O)C(C)(C)[C@@H]6CC[C@@]5(C)[C@]4(C)C[C@H]2O)[C@@H]3C1` [PROTOPRIMULAGENIN A], the MIC [1] is reported as 200 mg/L (≈ 436 µM) and the MIC [2] is reported as 200 mg/L (≈ 436 µM).

`CO[C@H]1/C=C/O[C@@]2(C)Oc3c(C)c(O)c4c(O)c(c(/C=N/N5CCN(C)CC5)c(O)c4c3C2=O)NC(=O)/C(C)=C\C=C\[C@H](C)[C@H](O)[C@@H](C)[C@@H](O)[C@@H](C)[C@H](OC(C)=O)[C@@H]1C` [RIFAMPIN] was tested, and the MIC [1] was 0.063 mg/L (≈ 0.0766 µM) and the MIC [2] was greater than 2 mg/L.

Work on `NNC(=O)c1ccncc1` [ISONIAZID] yielded an MIC [1] of 2 mg/L (≈ 14.6 µM) and an MIC [2] greater than 4 mg/L.

`CC1(C)CC[C@]23CO[C@@]4(CC[C@@H]5[C@@]6(C)CC[C@H](O)C(C)(C)[C@@H]6CC[C@@]5(C)[C@]4(C)CC2=O)[C@@H]3C1` [AEGICERIN] gave an MIC [1] of 1.6 mg/L (≈ 3.5 µM) and an MIC [2] of 1.6 mg/L (≈ 3.5 µM).
